Source: patent US7048919B2, “Osteoclast secreted chemokine and uses thereof” (The UAB Research Foundation, priority 2000, dated 2006)
pEC50: −log10 of the molar value. “Also recorded” adds a separate entry of the source.

Legend:
[1] = system: avian osteoclasts; test: Osteoclastic bone resorption assay (3H proline release from labeled bone); format: cell-based, avian (white Leghorn hens); conditions: for effect on PMA stimulated increase in bone resorption: PMA stimulated osteoclasts
Description: Bone resorption assays using 150 μg labeled bone were cultured for four days in the presence of increasing concentrations of PMA. Resorption activity was quantified by measuring ^3H proline released to the media. Data represent the mean +/− SEM of n=5 experiments each performed in quadruplicate.
Avian osteoclasts (from egg-laying white Leghorn hens) were utilized because gram quantities of pure osteoclasts are readily obtained. Avian osteoclasts (>10^7 cells) were isolated as previously described (16). Laying hens on a limited calcium diet produce massive numbers of osteoclasts to meet the calcium requirement for eggshell production. The endosteum of such birds, is >50% osteoclasts by mass. Medullary bone is scraped from the endosteum into calcium- and magnesium-free phosphate-buffered saline (PBS) at 4° C. Cells are separated from matrix by washing through 100 μm nylon filters and sedimented through 70% newborn calf serum. Osteoclasts purified by density gradient sedimentation, result in preparations in which osteoclasts represent ˜75–90% of viable cells. Following sedimentation, macrophages represent <2% of the cell mass. For experiments requiring homogeneous osteoclasts the cells purified by serum sedimentation are then affinity purified b y attachment to bone fragments and then resedimented 24 hrs later, eliminating essentially all but viable, bone-attached osteoclasts (17).
L-[^3H]-proline-labeled devitalized bone is used as Substrate in the avian osteoclast resorption assay. This substrate has the advantages of reflecting removal of both the mineral and organic phases of bone, and is resistant to artifacts due to physicochemical exchange (e.g. media acidification (16)). Weanling rats (40–60 g) are injected with 1 mCi of L-[2,3,4,5−^3H]-proline, >100 Ci/mmol, on alternate days for 10 days. Rats are sacrificed on day 12 and bone recovered by dissection. After washing, the bone is dried in a desiccator at 42° C. for 7 days. Labeled 20–40 μm bone fragments are obtained by grinding the bone in a ball bearing mill and sieving to size.
Osteoclasts are plated at 2–3×10^3 cells/well on 24 well plates with 100 μg of labeled 20–40 μm ^3H labeled bone fragments. To avoid possible contamination (due to fusing macrophages or growth of fibroblast/osteoblast cells) bone resorption is measured after 4 days. Osteoclasts rapidly (˜4 hrs) attach to and begin to degrade the bone fragments, releasing label into the media. Bone degradation is determined by measuring label released to the media. […] The ^3H proline assay is also resistant to pH-dependent artifacts and has less inter-assay variability than pi t assays (17–19). Activity, with 100 μg bone fragments, is linear over 5–7 days (16).

[2] = system: calmodulin; test: Calmodulin protein levels in osteoclasts; format: cell-based, avian; conditions: for calmodulin protein levels: PMA treated osteoclasts
[3] = system: avian osteoclasts; test: mim-1 secretion by osteoclasts, Western analysis of lysates and media; format: cell-based; conditions: for effect on secretion of mim-1: PMA stimulated osteoclasts
Description: Avian osteoclasts were cultured as described in FIGS. 1 and 2; cells were washed with ice cold PBS and lysed. Culture media was collected from each treatment and boiled in sample buffer. Protein (25 μg) from cell lysates (Lysates) and equal aliquots of the corresponding media (Media) were resolved on 10% SDS-PAGE, transferred to PVDF membrane and Western blotted for mim-1. Molecular weights (kilodaltons) are indicated on the left. Representative of n=2 separate experiments.
Avian osteoclasts were cultured with bone (1 mg/well) for the indicated times in the presence of 0.3 μM PMA. Osteoclasts were washed with ice-cold phosphate buffered saline, lysed and 25 μg cell lysates resolved on 10% SDS-PAGE, transferred to PVDF membrane and probed with for mim-1 as described in the legend to FIG. 4. Data is representative of two separate experiments.
Avian osteoclasts are washed with phosphate buffered saline (PBS) and lysed as previously described (20). The lysis buffer (Buffer A) is 50 mM Tris, pH 7.0, 250 mM sucrose, 1 mM EGTA, 1 mM EDTA, 1 mM ammonium molybdate, 50 mM NaF, 1 mM orthovanadate, 0.5 μM okadaic acid, 5 mM benzamidine, 0.1 mM PMSF, 0.05 mg/ml pepstatin, 0.06 mg/ml leupeptin, 0.018 trypsin inhibitor units of aprotinin/ml, 10% glycerol and 1% Triton X100. Cells were solubilized 1 hr with rotation and the Triton insoluble material removed by centrifugation at 15,000×g for 5 min at 4° C. Lysates (25 μg protein) were resolved on 10% SDS-PAGE. Protein was transferred under standard conditions (21) to PVDF membranes. Mim-1 was detected on Western analysis using a polyclonal antibody generated against a trpE-mim-1 fusion protein (15) (generously provided by Scott Ness, University of New Mexico) by enhanced chemiluminescence. Protein concentrations were determined by the Bio Rad DC assay (Bio Rad, Richmond, Calif.).
To determine the effects of PMA on osteoclast secretion of mim-1 and its relation to bone resorption, osteoclasts were cultured as described above in the presence of the indicated concentrations of PMA and aliquots of media removed at the indicated times (FIG. 4) and the level of mim-1 determined b y Western analysis. As bone resorption was stimulated (see FIG. 1), mim-1 dercreased in the cell lysate (FIG. 4, left, Lysates) and increased in the culture, media (FIG. 4, right, Media).

SMILES	pEC50 ([1]; Osteoclast, 96 h, read-out: K0.5 of stimulation of bone resorption)	stimulation of bone resorption by isolated osteoclasts ([1]; isolated avian osteoclasts, 4 days, 3H proline released to media) [fold]	calmodulin protein levels [2]	calmodulin protein levels ([2]; listed as Phorbol myristate acetate)	mim-1 in osteoclast cell lysates ([3]; 0.3 μM PMA, 24 hours)	secretion of mim-1 by osteoclasts ([3]; increasing concentrations of PMA)	effect on PMA stimulated increase in bone resorption [1]	effect on PMA dependent increase in calmodulin levels ([2]; PMA stimulated osteoclasts)	effect on secretion of mim-1 [3]
CCCCCCCCCCCCCC(=O)O[C@@H]1[C@@H](C)[C@@]2(O)[C@@H](C=C(CO)C[C@]3(O)C(=O)C(C)=C[C@@H]23)[C@@H]2C(C)(C)[C@]12OC(C)=O [PMA, phorbol myristate acetate]	6.52 to 7.00	4	increase in calmodulin protein levels	dose dependent increase	substantially reduced	rapidly increased; also recorded: stimulated in a PMA concentration dependent manner	–	–	–
CC/C(=C(\c1ccccc1)c1ccc(OCCN(C)C)cc1)c1ccccc1 [tamoxifen]	–	–	–	–	–	–	inhibited	inhibit	did not inhibit
CN1CCN(CCCN2c3ccccc3Sc3ccc(C(F)(F)F)cc32)CC1 [trifluoperazine]	–	–	–	–	–	–	inhibited	–	did not inhibit
